≈ marks a conversion by molar mass, not a printed value. Like-named read-outs stand apart in the source and are kept apart here.
How the values were obtained:
Jurkat E6.1 cells = assay: Apoptosis modulation, caspase-3/-7 activity in Jurkat E6.1 cells + CHX, 8 h; format: cell-based, human; conditions: Jurkat E6.1 + 0.5 μg/mL CHX
Experimental: Since apoptosis and necroptosis share key molecular players[20] and some RIPK3 necroptosis inhibitors may induce caspase-dependent cytotoxicity, hit compounds were tested for modulation of apoptosis activity in step three of the HTS workflow. Preliminary tests prior to screening encompassed the evaluation of several apoptosis inducers, such as FasL, doxorubicin, cycloheximide (CHX) and staurosporine, for their capability to modulate caspase-3/-7 activity in human Jurkat E6.1 T-cells, using Z-VAD-FMK and SN-2668/Nec-1 as negative and positive controls, respectively. […]
Adenylate kinase (AK) and lactate dehydrogenase (LDH) release from damaged cells were measured using the Toxilight BioAssay Kit (Lonza, Basel, Switzerland) and the Cytotoxicity Detection Kit (Roche Diagnostics GmbH, Mannheim, Germany), respectively. Adenosine triphosphate (ATP) metabolism was evaluated using CellTiter-Glo^TM Luminescent Cell Viability Assay (Promega, Madison, WI, USA). Apoptosis was determined by the measurement of caspase-3/-7 activity using the Caspase-Glo® 3/7 Assay (Promega) according to the manufacturer’s instructions. Cellular metabolic activity was measured using CellTiter 96® Aqueous Non-Radioactive Cell Proliferation (MTS) Assay (Promega). […]
Primary high-throughput screen. […] Eight hours after co-incubation of L929 cells with mTNF-α and test compounds, AK release was evaluated. […]

Aqueous solubility = format: physicochemical; conditions: read-out: Aqueous solubility, concentration

CN1C(=O)C(Cc2c[nH]c3ccccc23)NC1=S (stereo not shown) [Nec-1, necrostatin-1]
Modulation of caspase-3/-7 activity (apoptosis) (Jurkat E6.1 cells): failed to modulate caspase activity
solubility (Aqueous solubility): 97 µM (≈ 25.2 µg/mL)

O=C(c1cnn(Cc2ccccc2)c1)N1CCOc2ccccc2C1 [SN-6109]
Modulation of caspase-3/-7 activity (apoptosis) (Jurkat E6.1 cells): no apoptosis modulation
solubility (Aqueous solubility; aqueous medium (not further specified)): 47 µM (≈ 15.7 µg/mL)
